What all share (assay type): in vivo
The subject of test [1] is wheat selections FS2 and FS4 and Fidel. Kind of test: Postemergence Herbicide Tolerance, upper limits. The following applies: four weeks after treatment. The source says: In this second greenhouse test, the upper limits of the mutant selections' resistance to postemergent applications of PURSUIT™ and Compound 2 are examined. M4 seed of two of the mutant selections, FS2 and FS4, and seed of Fidel are used in this experiment. Five seeds from each line are planted per pot in sterile Metro Mix 350™ in six inch Azalea pots. Immediately prior to herbicide treatment, these plants are thinned to three plants per pot. Three replicates are used per treatment (chemical & rate) for each line, and six replicates per wheat line are used as untreated controls. The plants are sprayed postemergence, 10 days after planting, with the following herbicides and rates (g/ha):
The herbicides are applied as previously described. Plant height is measured immediately prior to spraying. Plant heights are also measured at two and four weeks after treatment, and shoot fresh weights measured at seven weeks after treatment.

Test [2] deals with F1 hybrids FS1-FS4 x Fidel and Fidel wheat. Kind of test: Genetic Condition Studies Experiment 1, F1 hybrids sprayed. The source says: Experiment 1: Six flats containing Metro Mix 350™ are planted with F1 hybrids derived from each of the following crosses: FS1×Fidel: FS2×Fidel; FS3×Fidel; FS4×Fidel and Fidel (susceptible, parental cultivar). One week later, the flats are sprayed, one flat per herbicide rate, with PURSUIT™ at 50, 100, 150, 200, and 250 g/ha to determine the genetic condition of the herbicide resistant trait in the selections, FS1-FS4. The herbicide is applied with a laboratory belt sprayer at a rate of 950 L/ha with a belt speed of 12.5 sec/rev using sprayer nozzle #40015E. Tween 20™ is used as the surfactant at 0.25% v/v in the herbicide solutions. Plants are rated 10 days after herbicide treatment.

Test [3] concerns wheat selections FS1-FS4 and Fidel. Kind of test: Field Trial I. Particulars: 100 g/ha postemergent, yields 10 weeks after treatment. The procedure:
A field study is conducted to evaluate the tolerance of the imidazolinone-resistant wheat selections, FS1-FS4, to postemergent applications of imidazolinone herbicides. The variety Fidel, from which these selections are derived, is included as a susceptible check. Because Fidel is a French winter wheat variety and unadapted to New Jersey, this test is intended to evaluate the relative effects of the herbicide treatments on grain yields rather than to measure actual yield potentials for the genotypes. Thus, yields are presented as grams/plot rather than bushels/acre or metric tons/ha.
M4 bulked seed from parental lines, FS1, FS2, FS3 and FS4 and Fidel wild-type, is used in this field trial. The trial is planted in an incomplete split plot design with the main plot as herbicide-rate combination and the split plot as genotypes. […] The plots are three meters long and 1.5 meters wide (7 rows with 7 inch spacing between rows) with approximately 25 seed planted per row. There is a one meter space between wheat lines and ten meters between replicates.
Treatments are applied at a rate of 400 L/ha with a tractor mounted sprayer. Tween 20™ is used as a surfactant at 0.25% v/v. Wheat is treated at the Z22 stage or approximately 6 inches tall. Plant height and damage ratings are taken at 3 and 6 weeks after treatment. Yields are taken 10 weeks after treatment.

This is an account of results in patent publication US7034208B1, “Ahas inhibiting herbicide resistant wheat and method for selection thereof” (BASF Aktiengellschaft, priority 1991, dated 2006).

On to `CCc1cnc(C2=NC(C)(C(C)C)C(=O)N2)c(C(=O)O)c1` (centres unmarked) [PURSUIT, 5-ethyl-2-(4-isopropyl-4-methyl-5-oxo-2-imidazolin-2-yl)-nicotinic acid], for which the “rates up to which FS2 and FS4 plant heights equal the untreated controls” value in test [1] is given as 500-1000 g/ha. Further, in test [2] (Fidel, rated 10 days after treatment), the “rate at which Fidel is killed” value worked out at 150 g/ha. The “damage to Fidel” value in test [2] (Fidel, rates of 50 and 100 g/ha) is recorded as “severely injured”. In test [2] (hybrids FS1-FS4 x Fidel, 250 g/ha, rated 10 days after treatment), the “damage to F1 hybrids” value is recorded as “stunted but not killed”. In addition, in test [3], the yield reduction worked out at 35%.
